In US11458123B2 (Arvinas, Inc., priority 2016, dated 2022):

These compounds were tested on tau protein (assay: Tau protein in vitro degradation assay (Western blot, Tau-13 antibody)). Settings: SK-N-SH cells; 72 hours of incubation; tested at 1000 nM, 300 nM and 100 nM.
Assay type: cell-based, human
Description: Tau Protein In Vitro Degradation Assay
To determine effect of PROTACs on tau protein degradation SK-N-SH cells were seeded in a 24-well tissue culture-treated plate for at least 18-hours prior to compound addition. Tau PROTACs were evaluated for tau degradation by lysing the cells in lysis buffer with protease inhibitors following a 72-hour incubation with tau PROTACs at 1000 nM, 300 nM and 100 nM for Table 1 and 300 nM, 100 nM, 33 nM and 11 nM for Table 2. Cell lysates were run on standard SDS-PAGE gels, and tau levels were detected by Western blotting using Tau-13 antibody from Abcam (Cambridge, UK) that binds to all forms of human tau.

| SMILES | Activity* (highest amount of degradation observed at any dosage, as tau protein remaining) |
| --- | --- |
| Cc1ncsc1-c1ccc(CNC(=O)[C@@H]2C[C@@H](O)CN2C(=O)[C@@H](NC(=O)COCCOCCOCCOc2ccc(-c3ccc4c(c3)[nH]c3ccncc34)cn2)C(C)(C)C)cc1 [Compound 1, (2S,4R)-1-((S)-14-(5-(5H-pyrido[4,3-b]indol-7-yl)pyridin-2-yloxy)-2-tert-butyl-4-oxo-6,9,12-trioxa-3-azatetradecane)-4-hydroxy-N-(4-(4-methylthiazol-5-yl)benzyl)pyrrolidine-2-carboxamide] | C (>80% tau protein remaining after 72 hours of incubation with the test compound) |
| O=C1CCC(N2C(=O)c3cccc(NCCOCCOCCOCCOc4ccc(-c5ccc6c(c5)[nH]c5ccncc56)cn4)c3C2=O)C(=O)N1 (stereo not shown) [Compound 2, 4-(2-(2-(2-(2-(5-(5H-pyrido[4,3-b]indol-7-yl)pyridin-2-yloxy)ethoxy)ethoxy)ethoxy)ethylamino)-2-(2,6-dioxopiperidin-3-yl)isoindoline-1,3-dione] | A (≤50% tau protein remaining after 72 hours of incubation with the test compound) |
| O=C1CCC(N2C(=O)c3cccc(NCCOCCOCCOc4ccc(-c5ccc6c(c5)[nH]c5ccncc56)cn4)c3C2=O)C(=O)N1 (stereo not shown) [Compound 3, 4-(2-(2-(2-(5-(5H-pyrido[4,3-b]indol-7-yl)pyridin-2-yloxy)ethoxy)ethoxy)ethylamino)-2-(2,6-dioxopiperidin-3-yl)isoindoline-1,3-dione] | A (≤50% tau protein remaining after 72 hours of incubation with the test compound) |
| O=C1CCC(N2C(=O)c3cccc(NCCOCCOCCOCCOCCOc4ccc(-c5ccc6c(c5)[nH]c5ccncc56)cn4)c3C2=O)C(=O)N1 (stereo not shown) [Compound 4, 4-((14-((5-(5H-pyrido[4,3-b]indol-7-yl)pyridin-2-yl)oxy)-3,6,9,12-tetraoxatetradecyl)amino)-2-(2,6-dioxopiperidin-3-yl)isoindoline-1,3-dione] | A (≤50% tau protein remaining after 72 hours of incubation with the test compound) |
| Cc1ncsc1-c1ccc(CNC(=O)[C@@H]2C[C@@H](O)CN2C(=O)[C@@H](NC(=O)COCCOCCOc2ccc(-c3ccc4c(c3)[nH]c3ccncc34)cn2)C(C)(C)C)cc1 [Compound 5, (2S,4R)-1-((S)-2-(2-(2-(2-(5-(5H-pyrido[4,3-b]indol-7-yl)pyridin-2-yloxy)ethoxy)ethoxy)acetamido)-3,3-dimethylbutanoyl)-4-hydroxy-N-(4-(4-methylthiazol-5-yl)benzyl)pyrrolidine-2-carboxamide] | C (>80% tau protein remaining after 72 hours of incubation with the test compound) |
| Cc1ncsc1-c1ccc(CNC(=O)[C@@H]2C[C@@H](O)CN2C(=O)[C@@H](NC(=O)COCCOCCOCCOCCOc2ccc(-c3ccc4c(c3)[nH]c3ccncc34)cn2)C(C)(C)C)cc1 [Compound 6, (2S,4R)-1-((S)-17-(5-(5H-pyrido[4,3-b]indol-7-yl)pyridin-2-yloxy)-2-tert-butyl-4-oxo-6,9,12,15-tetraoxa-3-azaheptadecane)-4-hydroxy-N-(4-(4-methylthiazol-5-yl)benzyl)pyrrolidine-2-carboxamide] | C (>80% tau protein remaining after 72 hours of incubation with the test compound) |
| Cc1ncsc1-c1ccc(CNC(=O)[C@@H]2C[C@@H](O)CN2C(=O)[C@@H](NC(=O)COCCOCCOCCN2CCN(c3ccn4c(n3)nc3ccccc34)CC2)C(C)(C)C)cc1 [Compound 7, (2S,4R)-1-((S)-14-(4-(benzo[4,5]imidazo[1,2-a]pyrimidin-2-yl)piperazin-1-yl)-2-(tert-butyl)-4-oxo-6,9,12-trioxa-3-azatetradecanoyl)-4-hydroxy-N-(4-(4-methylthiazol-5-yl)benzyl)pyrrolidine-2-carboxamide] | C (>80% tau protein remaining after 72 hours of incubation with the test compound) |
| Cc1ncsc1-c1ccc(CNC(=O)[C@@H]2C[C@@H](O)CN2C(=O)[C@@H](NC(=O)COCCOCCOCCCOc2ccc3nc(-c4ccc(N(C)C)cc4)ccc3c2)C(C)(C)C)cc1 [Compound 8, (2S,4R)-1-((S)-2-(tert-butyl)-15-((2-(4-(dimethylamino)phenyl)quinolin-6-yl)oxy)-4-oxo-6,9,12-trioxa-3-azapentadecanoyl)-4-hydroxy-N-(4-(4-methylthiazol-5-yl)benzyl)pyrrolidine-2-carboxamide] | C (>80% tau protein remaining after 72 hours of incubation with the test compound) |
| Cc1ncsc1-c1ccc(CNC(=O)[C@@H]2C[C@@H](O)CN2C(=O)[C@@H](NC(=O)COCCOCCOCCOCCCOc2ccc3nc(-c4ccc(N(C)C)cc4)ccc3c2)C(C)(C)C)cc1 [Compound 9, (2S,4R)-1-((S)-2-tert-butyl-18-(2-(4-(dimethylamino)phenyl)quinolin-6-yloxy)-4-oxo-6,9,12,15-tetraoxa-3-azaoctadecane)-4-hydroxy-N-(4-(4-methylthiazol-5-yl)benzyl)pyrrolidine-2-carboxamide] | C (>80% tau protein remaining after 72 hours of incubation with the test compound) |
| Cc1ncsc1-c1ccc(CNC(=O)[C@@H]2C[C@@H](O)CN2C(=O)[C@@H](NC(=O)COCCOCCOCC(=O)N2CCN(c3ccn4c(n3)nc3ccccc34)CC2)C(C)(C)C)cc1 [Compound 10] | C (>80% tau protein remaining after 72 hours of incubation with the test compound) |
| Cc1ncoc1-c1ccc(CNC(=O)[C@@H]2C[C@@H](O)CN2C(=O)[C@@H](NC(=O)COCCOCCOCCN2CCN(c3ccn4c(n3)nc3ccccc34)CC2)C(C)(C)C)cc1 [Compound 11, (2S,4R)-1-((S)-14-(4-(benzo[4,5]imidazo[1,2-a]pyrimidin-2-yl)piperazin-1-yl)-2-(tert-butyl)-4-oxo-6,9,12-trioxa-3-azatetradecanoyl)-4-hydroxy-N-(4-(4-methyloxazol-5-yl)benzyl)pyrrolidine-2-carboxamide] | C (>80% tau protein remaining after 72 hours of incubation with the test compound) |
| Cc1ncoc1-c1ccc(CNC(=O)[C@@H]2C[C@@H](O)CN2C(=O)[C@@H](NC(=O)COCCOCCOCCOCCN2CCN(c3ccn4c(n3)nc3ccccc34)CC2)C(C)(C)C)cc1 [Compound 12, (2S,4R)-1-((S)-17-(4-(benzo[4,5]imidazo[1,2-a]pyrimidin-2-yl)piperazin-1-yl)-2-(tert-butyl)-4-oxo-6,9,12,15-tetraoxa-3-azaheptadecanoyl)-4-hydroxy-N-(4-(4-methyloxazol-5-yl)benzyl)pyrrolidine-2-carboxamide] | C (>80% tau protein remaining after 72 hours of incubation with the test compound) |
| Cc1ncoc1-c1ccc(CNC(=O)[C@@H]2C[C@@H](O)CN2C(=O)[C@@H](NC(=O)COCCOCCOCC(=O)N2CCN(c3ccn4c(n3)nc3ccccc34)CC2)C(C)(C)C)cc1 [Compound 13, (2S,4R)-1-((S)-14-(4-(benzo[4,5]imidazo[1,2-a]pyrimidin-2-yl)piperazin-1-yl)-2-(tert-butyl)-4,14-dioxo-6,9,12-trioxa-3-azatetradecanoyl)-4-hydroxy-N-(4-(4-methyloxazol-5-yl)benzyl)pyrrolidine-2-carboxamide] | C (>80% tau protein remaining after 72 hours of incubation with the test compound) |
